PubChem BioAssay AID326 (DTP/NCI, 2004)
“And” between values parts separate entries of the source, which are not always exact repeats. Equal values may be shown once. Inconclusive results and toxic doses are left out.

Tested on: CD2F1 mice, P388/DHAQ leukemia ip, median survival T/C
Assay: NCI In Vivo Anticancer Drug Screen. Data for tumor model P388 Leukemia resistant to Dihydroxy Anthracenedione; NSC 299195 (intraperitoneal) in CD2F1 (CDF1) mice
Settings: endpoint: median survival time, higher = longer survival
Experimental: The antitumor activity of compounds was measured in mice bearing transplantable tumors. Survival or tumor size were measured and the results are expressed as the measurement made in the treated group (T) divided by the measurement made in the vehicle treated control group (C). The tumor model used in this assay is P388 Leukemia resistant to Dihydroxy Anthracenedione; NSC 299195 (intraperitoneal) in CD2F1 (CDF1) mice

[1] = dose: 4.32 mg/kg/injection, schedule: Q04DX003 (ip), vehicle: saline
[2] = dose: 7.2 mg/kg/injection, schedule: Q04DX003 (ip), vehicle: saline
[3] = dose: 12.0 mg/kg/injection, schedule: Q04DX003 (ip), vehicle: saline

## CC[C@@]1(O)C[C@H](OC2CC(N(C)C)C(OC3CC(O)C(OC4CCC(=O)C(C)O4)C(C)O3)C(C)O2)c2c(cc3c(c2O)C(=O)c2c(O)ccc(O)c2C3=O)[C@H]1C(=O)OC (stereo partly drawn)
dose: 1.56 mg/kg/injection, schedule: Q04DX003 (ip), vehicle: saline
  T/C: 116 % of control
[1]
  T/C: 162 % of control
[2]
  T/C: 189 % of control and 190 % of control and 220 % of control

## CC[C@H]1CN2CCc3cc(OC)c(OC)cc3[C@@H]2C[C@@H]1C[C@H]1NCCc2cc(OC)c(OC)cc21
[1]
  T/C: 111 % of control
dose: 5.18 mg/kg/injection, schedule: Q04DX003 (ip), vehicle: saline
  T/C: 111 % of control
[2]
  T/C: 121 % of control
dose: 8.64 mg/kg/injection, schedule: Q04DX003 (ip), vehicle: saline
  T/C: 121 % of control
[3]
  T/C: 121 % of control
dose: 14.4 mg/kg/injection, schedule: Q04DX003 (ip), vehicle: saline
  T/C: 156 % of control
dose: 24.0 mg/kg/injection, schedule: Q04DX003 (ip), vehicle: saline
  T/C: 175 % of control and 228 % of control

## Cc1c2ccncc2c(C)c2c1[nH]c1ccccc12
dose: 13.0 mg/kg/injection, schedule: Q04DX003 (ip), vehicle: saline with Tween-80
  T/C: 101 % of control and 107 % of control
dose: 25.9 mg/kg/injection, schedule: Q04DX002 (ip), vehicle: saline with Tween-80
  T/C: 97 % of control
dose: 32.4 mg/kg/injection, schedule: Q04DX002 (ip), vehicle: Klucel (hydroxypropylcellulose) (HPC)
  T/C: 111 % of control
dose: 43.2 mg/kg/injection, schedule: Q04DX002 (ip), vehicle: saline with Tween-80
  T/C: 105 % of control
dose: 54.0 mg/kg/injection, schedule: Q04DX002 (ip), vehicle: Klucel (hydroxypropylcellulose) (HPC)
  T/C: 100 % of control
dose: 60.0 mg/kg/injection, schedule: Q04DX003 (ip), vehicle: saline with Tween-80
  T/C: 116 % of control and 223 % of control and 98 % of control
dose: 72.0 mg/kg/injection, schedule: Q04DX002 (ip), vehicle: saline with Tween-80
  T/C: 112 % of control
dose: 90.0 mg/kg/injection, schedule: Q04DX002 (ip), vehicle: Klucel (hydroxypropylcellulose) (HPC)
  T/C: 88 % of control
dose: 120.0 mg/kg/injection, schedule: Q04DX002 (ip), vehicle: saline with Tween-80
  T/C: 114 % of control
dose: 150.0 mg/kg/injection, schedule: Q04DX002 (ip), vehicle: Klucel (hydroxypropylcellulose) (HPC)
  T/C: 83 % of control

## CC[C@@]1(O)C[C@H](OC2CC(N(C)C)C(OC3CC(O)C(OC4CCC(=O)C(C)O4)C(C)O3)C(C)O2)c2c(cc3c(c2O)C(=O)c2c(O)cccc2C3=O)[C@H]1C(=O)OC (stereo partly drawn)
[1]
  T/C: 120 % of control
[3]
  T/C: 196 % of control

## NCCCN=c1ccc2c3c1c(O)c1c(O)ccc(=O)c1c3[nH]n2CCNCCO
dose: 9.72 mg/kg/injection, schedule: Q04DX002 (ip), vehicle: water
  T/C: 124 % of control
dose: 27.0 mg/kg/injection, schedule: Q04DX002 (ip), vehicle: water
  T/C: 97 % of control
dose: 45.0 mg/kg/injection, schedule: Q04DX002 (ip), vehicle: water
  T/C: 97 % of control

## COc1cc([C@@H]2c3cc4c(cc3[C@@H](OC3OC5CO[C@@H](c6cccs6)OC5C(O)C3O)[C@H]3COC(=O)[C@H]23)OCO4)cc(OC)c1O (stereo partly drawn)
dose: 3.89 mg/kg/injection, schedule: Q04DX003 (ip), vehicle: clinical formulation
  T/C: 114 % of control
dose: 3.89 mg/kg/injection, schedule: Q04DX003 (ip), vehicle: saline
  T/C: 118 % of control
dose: 6.48 mg/kg/injection, schedule: Q04DX003 (ip), vehicle: clinical formulation
  T/C: 121 % of control
dose: 7.78 mg/kg/injection, schedule: Q04DX003 (ip), vehicle: saline
  T/C: 108 % of control
dose: 10.8 mg/kg/injection, schedule: Q04DX003 (ip), vehicle: clinical formulation
  T/C: 122 % of control
dose: 13.0 mg/kg/injection, schedule: Q04DX003 (ip), vehicle: saline
  T/C: 108 % of control
dose: 21.6 mg/kg/injection, schedule: Q04DX003 (ip), vehicle: saline
  T/C: 111 % of control
dose: 36.0 mg/kg/injection, schedule: Q04DX003 (ip), vehicle: saline
  T/C: 120 % of control

## COc1cc([C@@H]2c3cc4c(cc3[C@@H](OC3OC5COC(C)OC5C(O)C3O)[C@H]3COC(=O)[C@H]23)OCO4)cc(OC)c1O (stereo partly drawn)
dose: 7.78 mg/kg/injection, schedule: Q04DX003 (ip), vehicle: water
  T/C: 123 % of control
dose: 13.0 mg/kg/injection, schedule: Q04DX003 (ip), vehicle: water
  T/C: 124 % of control
dose: 18.0 mg/kg/injection, schedule: Q04DX003 (ip), vehicle: clinical formulation
  T/C: 155 % of control
dose: 18.0 mg/kg/injection, schedule: Q04DX003 (ip), vehicle: water
  T/C: 153 % of control
dose: 30.0 mg/kg/injection, schedule: Q04DX003 (ip), vehicle: clinical formulation
  T/C: 162 % of control
dose: 30.0 mg/kg/injection, schedule: Q04DX003 (ip), vehicle: water
  T/C: 105 % of control
dose: 50.0 mg/kg/injection, schedule: Q04DX003 (ip), vehicle: clinical formulation
  T/C: 166 % of control

## CO[C@@]12[C@H](COC(N)=O)C3=C(C(=O)C(C)=C(N)C3=O)N1C[C@@H]1N[C@@H]12
dose: 1.08 mg/kg/injection, schedule: Q04DX002 (ip), vehicle: saline
  T/C: 95 % of control
dose: 1.62 mg/kg/injection, schedule: Q04DX003 (ip), vehicle: saline
  T/C: 166 % of control
dose: 1.8 mg/kg/injection, schedule: Q04DX002 (ip), vehicle: saline
  T/C: 108 % of control
dose: 2.7 mg/kg/injection, schedule: Q04DX003 (ip), vehicle: saline
  T/C: 172 % of control
dose: 3.0 mg/kg/injection, schedule: Q04DX002 (ip), vehicle: saline
  T/C: 103 % of control
dose: 4.5 mg/kg/injection, schedule: Q04DX003 (ip), vehicle: saline
  T/C: 168 % of control
dose: 5.0 mg/kg/injection, schedule: Q04DX002 (ip), vehicle: saline
  T/C: 117 % of control
dose: 7.5 mg/kg/injection, schedule: Q04DX003 (ip), vehicle: saline
  T/C: 108 % of control

## CN(Cc1cnc2nc(N)nc(N)c2n1)c1ccc(C(=O)N[C@@H](CCC(=O)O)C(=O)O)cc1
dose: 8.64 mg/kg/injection, schedule: Q04DX003 (ip), vehicle: sodium bicarbonate
  T/C: 161 % of control and 192 % of control
dose: 14.4 mg/kg/injection, schedule: Q04DX003 (ip), vehicle: sodium bicarbonate
  T/C: 168 % of control and 195 % of control
dose: 24.0 mg/kg/injection, schedule: Q04DX003 (ip), vehicle: sodium bicarbonate
  T/C: 108 % of control and 214 % of control
dose: 40.0 mg/kg/injection, schedule: Q04DX003 (ip), vehicle: sodium bicarbonate
  T/C: 92 % of control

## O=C1c2ccccc2C(=O)c2c(NCCNCCO)ccc(O)c21
dose: 19.4 mg/kg/injection, schedule: Q04DX003 (ip), vehicle: saline
  T/C: 121 % of control
dose: 32.4 mg/kg/injection, schedule: Q04DX003 (ip), vehicle: saline
  T/C: 107 % of control
dose: 54.0 mg/kg/injection, schedule: Q04DX003 (ip), vehicle: saline
  T/C: 90 % of control

## S=P(N1CC1)(N1CC1)N1CC1
dose: 3.24 mg/kg/injection, schedule: Q04DX002 (ip), vehicle: saline
  T/C: 103 % of control
dose: 5.4 mg/kg/injection, schedule: Q04DX002 (ip), vehicle: saline
  T/C: 122 % of control
dose: 15.0 mg/kg/injection, schedule: Q04DX002 (ip), vehicle: saline
  T/C: 183 % of control

## O=C(O)CCCc1ccc(N(CCCl)CCCl)cc1
dose: 2.59 mg/kg/injection, schedule: Q04DX002 (ip), vehicle: saline with Tween-80
  T/C: 100 % of control
dose: 4.32 mg/kg/injection, schedule: Q04DX002 (ip), vehicle: saline with Tween-80
  T/C: 101 % of control
dose: 7.2 mg/kg/injection, schedule: Q04DX002 (ip), vehicle: saline with Tween-80
  T/C: 100 % of control
dose: 12.0 mg/kg/injection, schedule: Q04DX002 (ip), vehicle: saline with Tween-80
  T/C: 100 % of control
dose: 20.0 mg/kg/injection, schedule: Q04DX002 (ip), vehicle: saline with Tween-80
  T/C: 106 % of control

## O=CC(NC(=O)N(CCCl)N=O)C(O)C(O)C(O)CO (stereo not drawn)
dose: 7.2 mg/kg/injection, schedule: Q04DX002 (ip), vehicle: saline
  T/C: 201 % of control
dose: 12.0 mg/kg/injection, schedule: Q04DX002 (ip), vehicle: saline
  T/C: 181 % of control
dose: 20.0 mg/kg/injection, schedule: Q04DX002 (ip), vehicle: saline
  T/C: 412 % of control

## COC(=O)C[C@](O)(CCCC(C)(C)O)C(=O)O[C@@H]1C(OC)=C[C@]23CCCN2CCc2cc4c(cc2[C@H]13)OCO4
dose: 3.0 mg/kg/injection, schedule: Q04DX003 (ip), vehicle: saline
  T/C: 116 % of control
dose: 3.33 mg/kg/injection, schedule: Q04DX003 (ip), vehicle: saline
  T/C: 154 % of control
